{
  "source": "patent US5187157A",
  "about": "“Peptide boronic acid inhibitors of trypsin-like proteases” (Du Pont Merck Pharmaceutical Company, priority 1988, dated 1993)",
  "key": {"Human thrombin": {"target": "T1, Human thrombin (Homo sapiens, UniProt P00734)", "T1 construct": "purchased R.Q.P. Laboratories, South Bend, IN Lot HT102", "experiment": "Inhibition of Thrombin (Esterase Activity)", "type": "biochemical", "conditions": "inhibitor 5 nM; activity remaining 10 to 20 min after initiation"}, "normal human plasma [1]": {"tested_on": "normal human plasma", "experiment": "Prothrombin times (PT), blood coagulation in vitro", "type": "biochemical", "description": "(§1) The effectiveness of inhibitors in reactions in which they compete with natural substrates for target enzymes is measured in vitro in blood coagulation assays. Two different assays are used, the APTT (activated partial thromboplastin times) and PT (prothrombin times) assays. These assays mimic the blood clotting process in vivo. Blood coagulation occurs through either of two pathways, each consisting of a cascades of zymogen activation steps. The pathways are termed the intrinsic and the extrinsic pathways (see L. Lorand, Methods in Enzymology 45: 31-37 (1976). The intrinsic pathway is initiated by negatively charged surfaces in which plasma kallikrein, factor XII and factor […] are activated and then factors IX and X and prothrombin are activated in calcium dependent steps. Thrombin, the last protease in the cascade, hydrolyses fibrinogen to fibrin which results in clot formation. In the APTT assay, plasma components are activated by exposure to negatively charged surfaces and then clotting times are measured after calcium is added to the system. In the extrinsic pathway, tissue thromboplastin activates factor VII which then activates factor X leading to the activation of thrombin. These events are measured in the prothrombin times assay.\nFor PT assays, inhibitor solutions (0.100 mL) were incubated with normal human plasma (0.100 mL) for 2 min at 37°."}, "normal human plasma [2]": {"tested_on": "normal human plasma", "experiment": "Activated partial thromboplastin times (APTT), blood coagulation in vitro", "type": "biochemical", "description": "as §1\nThe effect of protease inhibitors on blood coagulation in vitro was determined by measuring their effects on two different clinical parameters, the activated partial thromboplastin times (APTT) and prothrombin times (PT). Reagents for each of these assays were supplied by General Diagnostics, Jessup MD. Stock solutions of inhibitors were prepared in […] HEPES buffer, pH 7.5, containing 0.10 M sodium chloride. For the APTT assay, the inhibitor solution (0.100 mL) was incubated with normal human plasma (0.100 mL) and automated APTT reagent (0.100 mL). After incubation for 5.0 min at 37°, calcium chloride (0.100 mL) was added and the clotting times, measured in seconds, was determined on a fibrameter. The effects of the varying concentrations of inhibitor on blood clotting times compared with the clotting times of controls run in the absence of inhibitor, are shown in Table 3."}, "[3]": {"experiment": "Stability of Inhibitors in Buffer (thrombin assay)", "conditions": "for Percent Thrombin activity: 1.0 μM", "experimental": "Samples of the inhibitors are removed at increasing time intervals and their ability to delay clotting is measured at each interval.\nInhibitors, each at a concentration of 1.0 μM, were incubated at room temperature in 0.20 M sodium phosphate buffer, pH 7.5, containing 0.20 M sodium chloride and 0.10% PEG."}, "[4]": {"experiment": "Stability of Inhibitors in Human Plasma As Measured By APTT", "type": "in vitro ADME", "conditions": "250 nM in APTT assay", "description": "The stability of inhibitors in plasma was determined by their ability to inhibit blood coagulation. First, a stock solutions (1.0 μM) of the inhibitors to be tested in 25 mM HEPES buffer, pH 7.5, containing 0.10 M sodium chloride were diluted 50% with normal human plasma. The mixtures were made at 0°, then aliquots (0.200 mL) were removed and incubated for 2 min at 37°. An equal volume of automated APTT reagent was added and clotting times were measured as described in Examples 111-117. The final concentration of inhibitor during the clotting assays was 250 nM. Values for compounds E and F were determined simultaneously with the Control. Values for compounds A, B and C were obtained on a different day."}, "Sprague Dawley CD Rats": {"tested_on": "Sprague Dawley CD Rats", "experiment": "In Vivo Inhibition of Croton Oil Induced Inflammation (ear swelling)", "conditions": "Table 14; dose=100 μg, essentially the same conditions", "experimental": "Two solutions were prepared, the first consisting of 5% croton oil, a known inflammatory agent, in an acetone carrier (Croton Solution) and the second consisting of 5% croton oil in an acetone carrier to which 10 mg/mL of a compound of the invention was added (Compound Solution). The Croton Solution (10 μL), or alternatively the Compound Solution (10 μL), was applied to the right ear of each animal (Sprague Dawley CD Rats, 130-140 g, supplied by Charles River Labs, Inc., Wilmington, MA). […] \"SE\" denotes standard error."}, "plasma [5]": {"tested_on": "plasma", "conditions": "at 1 μM; Green et al.; cited from earlier work"}, "thrombin": {"target": "thrombin", "conditions": "literature; cited from earlier work"}, "rabbit": {"tested_on": "rabbit", "conditions": "rabbit model; Shaw et al.; cited from earlier work"}, "plasma [6]": {"tested_on": "plasma", "experiment": "Heparin effect on plasma clotting times", "type": "biochemical", "conditions": "assuming molecular weight 15,000 and 150 units/mg"}, "plasma [7]": {"tested_on": "plasma", "conditions": "0.2-0.4 units of heparin per mL of plasma; cited from earlier work"}, "rats": {"tested_on": "rats", "conditions": "Tremoli et al.; cited from earlier work"}},
  "data": [
    {"compound": "CC(C)(C)OC(=O)NC(Cc1ccccc1)C(=O)N1CCCC1C(=O)NC(CCCN=C(N)N)B1OC2CC3CC(C3(C)C)C2(C)O1.O=S(=O)(O)c1ccccc1", "note": "(stereo not drawn) [A, Boc-(D)Phe-Pro-boroArg-C10 H16.benzene sulfonic acid]", "values": [
      {"measurement": "Percent Activity", "setting": "Human thrombin", "result": 3, "unit": "%"},
      {"measurement": "Calc. Concentration 2 × XPT", "setting": "normal human plasma [1]; approximate concentration required to increase PT two fold", "result": 800, "unit": "nM"},
      {"measurement": "Prothrombin Times", "setting": "normal human plasma [1]; inhibitor 12.5 nM", "result": 16.4, "unit": "s"},
      {"measurement": "Prothrombin Times", "setting": "normal human plasma [1]; inhibitor 250 nM", "result": 17.1, "unit": "s"},
      {"measurement": "Prothrombin Times", "setting": "normal human plasma [1]; inhibitor 500 nM", "result": 21.5, "unit": "s"},
      {"measurement": "Prothrombin Times", "setting": "normal human plasma [1]; inhibitor 750 nM", "result": 26.7, "unit": "s"},
      {"measurement": "Prothrombin Times", "setting": "normal human plasma [1]; inhibitor 875 nM", "result": 40.1, "unit": "s"},
      {"measurement": "Prothrombin Times", "setting": "normal human plasma [1]; inhibitor 1000 nM", "result": "> 200", "unit": "s"},
      {"measurement": "Calc. Concentration 2 × APTT", "setting": "normal human plasma [2]; approximate concentration required to increase APTT two fold", "result": 230, "unit": "nM"},
      {"measurement": "Activated Partial Thromboplastin Times", "setting": "normal human plasma [2]; inhibitor 125 nM", "result": 36.6, "unit": "s"},
      {"measurement": "Activated Partial Thromboplastin Times", "setting": "normal human plasma [2]; inhibitor 200 nM", "result": 40.2, "unit": "s"},
      {"measurement": "Activated Partial Thromboplastin Times", "setting": "normal human plasma [2]; inhibitor 250 nM", "result": 81.2, "unit": "s"},
      {"measurement": "Activated Partial Thromboplastin Times", "setting": "normal human plasma [2]; inhibitor 300 nM", "result": 113.3, "unit": "s"},
      {"measurement": "Activated Partial Thromboplastin Times", "setting": "normal human plasma [2]; inhibitor 350 nM", "result": 128.7, "unit": "s"},
      {"measurement": "Percent Thrombin activity", "setting": "[3]; 0 hr in 0.20 M sodium phosphate buffer pH 7.5, room temperature", "result": 3.3, "unit": "%"},
      {"measurement": "Percent Thrombin activity", "setting": "[3]; 6.5 hr in 0.20 M sodium phosphate buffer pH 7.5, room temperature", "result": 1.6, "unit": "%"},
      {"measurement": "Percent Thrombin activity", "setting": "[3]; 24 hr in 0.20 M sodium phosphate buffer pH 7.5, room temperature", "result": 0.8, "unit": "%"},
      {"measurement": "stability in phosphate buffer at pH 7.5 (inhibitory activity)", "setting": "[3]; phosphate buffer pH 7.5", "result": "little loss of inhibitor activity"},
      {"measurement": "Clotting Time", "setting": "[4]; incubation in human plasma 0 h", "result": 81.2, "unit": "s"},
      {"measurement": "Clotting Time", "setting": "[4]; incubation in human plasma 0.5 h", "result": 84.7, "unit": "s"},
      {"measurement": "Clotting Time", "setting": "[4]; incubation in human plasma 1 h", "result": 79.7, "unit": "s"},
      {"measurement": "Clotting Time", "setting": "[4]; incubation in human plasma 2 h", "result": 86.7, "unit": "s"},
      {"measurement": "Clotting Time", "setting": "[4]; incubation in human plasma 4 h", "result": 98.2, "unit": "s"},
      {"measurement": "Clotting Time", "setting": "[4]; incubation in human plasma 24 h", "result": 92.2, "unit": "s"},
      {"measurement": "Percent Inhibition", "setting": "Sprague Dawley CD Rats", "result": 59, "unit": "%"}
    ]},
    {"compound": "CC1CNc2c(cccc2S(=O)(=O)N[C@@H](CCCNC(=N)N)C(=O)N2CC[C@@H](C)C[C@@H]2C(=O)O)C1", "note": "(stereo partly drawn) [(2R,4R)-4-methyl-1[N^2 -{(3-methyl-1,2,3,4-tetrahydro-8-quinolinyl)sulfonyl}-L-arginyl]-2-piperid inecarboxylic acid]", "values": [
      {"measurement": "increase of prothrombin times of plasma", "setting": "plasma [5]", "result": 2, "unit": "fold"}
    ]},
    {"compound": "N=C(N)NCCC[C@@H](C=O)NC(=O)[C@@H]1CCCN1C(=O)[C@H](N)Cc1ccccc1", "note": "[H-(D)Phe-Pro-Arg-H]", "values": [
      {"measurement": "Ki", "setting": "thrombin", "result": 75, "unit": "nM"}
    ]},
    {"compound": "N=C(N)NCCC[C@H](NC(=O)[C@@H]1CCCN1C(=O)[C@H](N)Cc1ccccc1)C(=O)CCl", "note": "[H-(D)Phe-Pro-ArgCH2 Cl]", "values": [
      {"measurement": "prevention of coronary thrombosis", "setting": "rabbit", "result": "effective in the prevention of coronary thrombosis"}
    ]},
    {"compound": "heparin", "values": [
      {"measurement": "molar concentration increasing clotting times 2-2.5 fold", "setting": "plasma [6]", "result": "86 to 170", "unit": "nM"},
      {"measurement": "increase of clotting times", "setting": "plasma [7]", "result": "2-2.5 fold"}
    ]},
    {"compound": "CC(C)(C)OC(=O)N[C@H](Cc1ccccc1)C(=O)N1CCC[C@H]1C(=O)N[C@H](C=O)CCCNC(=N)N", "note": "[Boc-(D)Phe-Pro-Arg-H]", "values": [
      {"measurement": "size of venous thrombosis", "setting": "rats", "result": "reduces the size of venous thrombosis"}
    ]}
  ]
}
